Experimental findings from patent US10377784B2, “Design, synthesis, and biological activity of platinum-benz[c]acridine hybrid agents and methods associated therewith” (Wake Forest University, priority 2014, dated 2019) are described below.

What is called IC50 is the concentration that gives 50% inhibition. A low value points to inhibition by little substance.

One data set has as its system NCI-H460. Nature of the data set: Cytotoxicity assay (MTS, Celltiter 96) in NCI-H460. The data set is classed as cell-based, human. The following applies: for IC50: 72 h drug incubation, MTS assay, mean of duplicate experiments ± SD. How it is done: (§1) After successful synthesis and purification of P1-A1, P1-B1, and P1-B2 was completed, each drug was tested for its cell-kill ability in five non-small-cell lung cancer cell lines (Table 2).
(§2) ^aConcentration of compound that reduces cell viability by 50%, determined at 72 h of drug incubation using the MTS (3-(4,5-dimethylthiazol-2-yl)-5-(3-carboxymethoxyphenyl)-2-(4-sulfophenyl)-2H-tetrazolium) assay. Values are means of duplicate experiments±the standard deviation. ^bCompound not tested in this cell line.
(§3) The human non-small cell lung cancer cell lines, NCI-H460 (large cell), NCI-H520 (squamous cell), NCI-H522, NCI-H1435 and A549 (adenocarcinomas) were obtained from the American Type Culture Collection (Rockville, Md., USA). NCI-H460, NCI-H520 and NCI-H522 cells were cultured in RPMI-1640 media (HyClone) supplemented with 10% fetal bovine serum (FBS), […] (P&S), […], and 1.5 g/L NaHCO3. A549 cells were cultured in HAM's F12K media (Gibco) with the same additives as above. NCI-H1435 cells were cultured in serum-free 1:1 DMEM/F12 media (Gibco) containing 2.436 g/L NaHCO3, 0.02 mg/mL insulin, 0.01 mg/mL transferrin, 25 nM sodium selenite, 50 nM hydrocortisone, 1 ng/mL epidermal growth factor, 0.01 mM ethanolamine, 0.01 mM phosphorylethanolamine, 100 pM triiodothyronine, 0.5% (w/v) bovine serum albumin (BSA), 10 mM HEPES, 0.5 mM sodium pyruvate, and an extra 2 mM L-glutamine (final concentration 4.5 mM). Cells were incubated at a constant temperature at 37° C. in a humidified atmosphere containing 5% CO2 and were subcultured every 2 to 3 days in order to maintain cells in logarithmic growth, except for NCI-H1435 which was subcultured every 7 days.
(§4) The cytotoxicity studies were carried out according to a standard protocol using the Celltiter 96 aqueous nonradioactive cell proliferation assay kit (Promega, Madison, Wis.). Stock solutions (10 mM) of all drugs were made in DMF, except for P1-B2 which was made in DMSO, and serially diluted with media prior to incubation with cancer cells. IC50 values were calculated from nonlinear curve fits using a sigmoidal dose-response equation in GraphPad Prism (GraphPad Software, La Jolla, Calif.).

Another data set relates to NCI-H520. Nature of the data set: Cytotoxicity assay (MTS, Celltiter 96) in NCI-H520. The format is cell-based, human. Particulars: mean of duplicate experiments ± SD. How it is done: as §1, §2, §3, §4
The subject of another data set is NCI-H1435. The experiment in a line: Cytotoxicity assay (MTS, Celltiter 96) in NCI-H1435. The format is cell-based, human. Particulars: 72 h drug incubation, mean of duplicate experiments ± SD. How it is done:
as §1, §2, §3
(§5) The cytotoxicity studies were carried out according to a standard protocol using the Celltiter 96 aqueous nonradioactive cell proliferation assay kit (Promega, Madison, Wis.). […] IC50 values were calculated from nonlinear curve fits using a sigmoidal dose-response equation in GraphPad Prism (GraphPad Software, La Jolla, Calif.).

In another data set the test system is A549. Nature of the data set: Cytotoxicity assay (MTS, Celltiter 96) in A549. The format is cell-based, human. Particulars: 72 h drug incubation, mean of duplicate experiments ± SD. How it is done: as §1, §2, §3, §5
The next data set deals with NCI-H522. Nature of the data set: Cytotoxicity assay (MTS, Celltiter 96) in NCI-H522. The data set is classed as cell-based, human. Particulars: 72 h drug incubation, mean of duplicate experiments ± SD. The method, then: as §1, §2, §3, §5
The nature of data set [1]: Spectrophotometric determination of pKa values for platinum complexes. The format is physicochemical. Particulars: spectrophotometric titration at 25° C.; numeric values only in Chart 3 drawing. The method, then: The pKa values of P1-A1, P1-B1 and P1-B2 were determined spectrophotometrically using a Hewlett Packard 8354 spectrophotometer equipped with a Peltier temperature control and a cell stirring module. Titrations were carried out at 25° C. in the pH range 2-11 with a micro combination electrode placed inside the cuvette. Solutions of P1-A1 (˜100 μM), P1-B1 (˜100 μM), and P1-B2 (˜50 μM) in 0.1 M HCl/100 mM NaCl were titrated with aliquots of 0.4 M, 0.04M, and 0.004M KOH, and UV-Vis spectra were recorded after a 2 min equilibration time. The protonation state of the chromophores was deduced from spectral changes around isosbestic points. The pKa values were determined graphically from plots of pH vs. log[k(Aacr/AacrH+)], where k=εacrH+/εacr using suitable absorbance maxima. The pKa values of P1-A1 and P1-B1 were determined at the y-intercept of the plot. […] Reported pKa values are means of three measurements+/−the standard deviation.

The test system of another data set is G-quadruplex DNA. Nature of the data set: G-quadruplex DNA recognition and platination. The data set is classed as binding. The following applies: for Selective recognition of G-quadruplex DNA: displayed by induced circular dichroism (ICD).
Data set [2] relates to non-small-cell lung cancer cell lines. Nature of the data set: Cytotoxicity across NSCLC lines (summary statements). The data set is classed as cell-based, human. How it is done: as §1
When observing the structure-activity relationship of the platinum hybrid agents, it is important to note the increased cytotoxicity upon addition of the platinum module.
The human non-small cell lung cancer cell lines, NCI-H460 (large cell), NCI-H520 (squamous cell), NCI-H522, NCI-H1435 and A549 (adenocarcinomas) were obtained from the American Type Culture Collection (Rockville, Md., USA). NCI-H460, NCI-H520 and NCI-H522 cells were cultured in RPMI-1640 media (HyClone) supplemented with 10% fetal bovine serum (FBS), […] (P&S), […], and 1.5 g/L NaHCO3. A549 cells were cultured in HAM's F12K media (Gibco) with the same additives as above. […]
as §5

Another data set deals with RNA from NCI-H460 cells. Nature of the data set: Platinum content associated with RNA in NCI-H460 cells (ICP-MS). Particulars: 1 μM drug, 3 h, p<0.05. The data set is classed as cell-based, human. The method, then:
(§6) To determine the platinum content of nucleic acid material, DNA and RNA was extracted and purified from cells using the Qiagen AllPrep DNA/RNA Mini Kit (Qiagen, Alameda, Calif., USA). 1.5×10^6 exponentially-growing NCI-H460 cells were seeded into 60-mm cell culture dishes with 2 mL of media and were allowed to attach for 24 hours. Cells were incubated in the presence of 1 μM P1-A1 or P1-B1 at 37° C. for various time intervals. Incubations were performed in triplicate for each incubation condition/time point. To quench the incubations, cells were washed three times in cold PBS. The cells were harvested via trypsinization and removed from the dishes with successive washes of cold PBS. Cell suspensions were centrifuged at 1500 rpm for 5min at 4° C. The cell pellet was re-suspended in 5 mL of cold PBS and centrifuged at 1500 rpm for 5 min at 4° C. The supernatant was removed and the DNA/RNA was extracted from the pellet according to the protocol provided by the manufacturer. The concentration and purity of each sample was determined spectrophotometrically (triplicate readings at 260 and 280 nm).
(§7) Platinum content was determined by ICP-MS.

For a further data set, the system named is DNA from NCI-H460 cells. The experiment in a line: Platinum content associated with DNA in NCI-H460 cells (ICP-MS). Particulars: 1 μM drug, both time points, p>0.05. The data set is classed as cell-based, human. The method, then:
as §6, §7

Setting [3] is: Homo sapiens, NCI-H520, 72 h drug incubation.

Turning to `CNCCNc1c2ccccc2nc2c1ccc1ccccc12` [Compound B1, N1-(benzo[c]acridin-7-yl)-N2-methylethane-1,2-diamine], the IC50 was determined as 0.9 ± 0.1 µM in the data set with NCI-H460 (Homo sapiens, NCI-H460) and 1.8 ± 0.1 µM in the data set with NCI-H520 (setting [3]). For the same molecule, in the data set with NCI-H460 (NCI-H460 cells, 72 h incubation, chromophore module alone), the “IC50 value (in words)” value is “sub-micromolar range”.

Turning to `CNCCNc1c2cc([N+](=O)[O-])ccc2nc2c1ccc1ccccc12` [Compound B2, N1-methyl-N2-(9-nitrobenzo[c]acridin-7-yl)ethane-1,2-diamine], the half-maximal inhibitory concentration (IC50) in the data set with NCI-H460 (Homo sapiens, NCI-H460) worked out at 2.08 ± 0.04 µM; in the data set on NCI-H520 (setting [3]) it was 3.35 ± 0.08 µM.

In the case of “[Pt(Cl)(NH3)2(N-(2-(acridin-9-ylamino)ethyl)-N-methylpropionimidamide)] Cl [Compound P1-A1, reference compound]”, the 50% inhibitory concentration (IC50) is 0.0052 ± 6e-05 µM with NCI-H460; 0.84 ± 0.07 µM with NCI-H1435; 0.0065 ± 0.0002 µM in the data set on A549; 0.01 ± 0.0007 µM in the data set with NCI-H522; 0.043 ± 0.004 µM with NCI-H520 (72 h drug incubation). Also, the “pKa (rank among the three Pt-chromophore hybrid agents)” value in data set [1] was “highest”. Besides, the “Selective recognition of G-quadruplex DNA” value (“Selective recognition” for short) in the data set on G-quadruplex DNA is “not previously displayed”.

For “[Pt(Cl)(NH3)2(N-(2-(benzo[c]acridin-7-ylamino)ethyl)-N-methylpropionimidamide)] Cl [Compound P1-B1]”, the IC50 in the data set with NCI-H460 is 0.24 ± 0.01 µM; in [2] (NSCLC lines tested except NCI-H1435), 100 to 500 nM; with NCI-H1435, 1.479 ± 0.009 µM; with A549 it was 0.32 ± 0.06 µM; in the data set on NCI-H522, 0.12 ± 0.02 µM; in the data set with NCI-H520 (72 h drug incubation), 0.516 ± 0.009 µM. Besides, the “cytotoxicity (in words)” value in data set [2] (72 hour incubations, extremely aggressive NSCLC models) is “nanomolar cytotoxicity”. In addition, the “platinum level observed in the RNA of treated cells” value in the data set with RNA from NCI-H460 cells is given as “statistically significant”. Also, in the data set on G-quadruplex DNA, the “folding and irreversible platination of G-quadruplex DNA” value is “ability to fold and irreversibly platinate G-quadruplex DNA”. Besides, the “Selective recognition” value in the data set with G-quadruplex DNA is reported as “Selective recognition of G-quadruplex DNA”. Also, the “platinum level observed in the DNA of treated cells vs control cells” value in the data set with DNA from NCI-H460 cells is on record as “not statistically significant”.

Take “[Pt(Cl)(NH3)2(N-methyl-N-(2-((9-nitrobenzo[c]acridin-7-yl)amino)ethyl)propionimidamide)] Cl •1/3 DMF [Compound P1-B2]”: the IC50 in the data set on NCI-H460 amounted to 2.4 ± 0.5 µM; with NCI-H1435, 11 ± 0.2 µM; in the data set on A549, 12.4 ± 0.9 µM; in the data set with NCI-H522 it was 3.62 ± 0.08 µM; in the data set on NCI-H520 (72 h drug incubation) it was 2.2 ± 0.1 µM. In data set [1], the “pKa (rank among the three Pt-chromophore hybrid agents)” value is given as “lowest”. The “folding and irreversible platination of G-quadruplex DNA” value with G-quadruplex DNA is “ability to fold and irreversibly platinate G-quadruplex DNA”. Also, in the data set with G-quadruplex DNA, the “Selective recognition” value is “Selective recognition of G-quadruplex DNA”.
